Data taken from US20140018384A1, “QUINOLINONE DERIVATIVES FOR USE IN THE TREATMENT OF AN AUTOIMMUNE DISEASE AND/OR AN INFLAMMATORY DISEASE” (PRONOXIS AB, priority 2011, published 2014).
Read-outs that look alike come from different tables or passages of the source.

Tested on: PLB-985 cells
Test: ROS production (isoluminol/HRP luminescence) in PLB-985 cells, Biological Example 1
Format: cell-based
Summary of the method: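 Cells in HBSS received compound plus isoluminol and HRP; luminescence followed 10–30 min, AUC divided by control to give fold change in NADPH oxidase activity. HL-60: 50 μM compound vs blank; PLB-985: 25 μM compound vs blank or vs DMSO.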

[1] = 25 μM compound vs. blank, read-out: Activity B (fold increase of NADPH activity compared to control)
[2] = 25 μM compound vs. DMSO, setup D, read-out: Activity D (fold increase of NADPH activity compared to control)
[3] = 25 μM compound vs. DMSO, setup C, read-out: Activity C (fold increase of NADPH activity compared to control)
[4] = 25 μM compound vs. DMSO, setup E, read-out: Activity E (fold increase of NADPH activity compared to control)

CCc1ccc(C(=O)c2cn(CC(=O)Nc3ccc(Cl)cc3)c3cc4c(cc3c2=O)OCO4)cc1 [Example 53, N-(4-Chlorophenyl)-2-[3-(4-ethylbenzoyl)-6,7-methylenedioxy-4-oxo-1-quinolinyl]acetamide] gave a fold induction at 25 µM [1] of 150.

COc1cc2c(=O)c(C(=O)c3ccc4ccccc4c3)cn(CC(=O)Nc3ccc(Cl)cc3)c2cc1C [Example 19, N-(4-Chlorophenyl)-2-[6-methoxy-7-methyl-3-(2-naphthoyl)-4-oxo-1-quinolinyl]acetamide] was tested, and the fold induction at 25 µM [2] was 10.9.

Work on O=C(Cn1cc(S(=O)(=O)c2ccccc2)c(=O)c2cc3c(cc21)OCO3)Nc1ccccc1 [Example 79, 2-(3-Benzenesulfonyl-6,7-methylenedioxy-4-oxo-1-quinolinyl)-N-phenylacetamide] yielded a fold induction at 25 µM [3] of 3.2.

O=C(Cn1cc(C(=O)c2cccc(F)c2)c(=O)c2cc3c(cc21)OCO3)Nc1ccc(Cl)cc1 [Example 32, N-(4-Chlorophenyl)-2-[3-(3-fluorobenzoyl)-6,7-methylenedioxy-4-oxo-1-quinolinyl]acetamide] gave a fold induction at 25 µM [3] of 47.8.

With CCc1ccc(C(=O)c2cn(CC(=O)Nc3ccc(OC)c(OC)c3)c3cc4c(cc3c2=O)OCO4)cc1 [Example 52, N-(3,4-Dimethoxyphenyl)-2-[3-(4-ethylbenzoyl)-6,7-methylenedioxy-4-oxo-1-quinolinyl]acetamide] the fold induction at 25 µM [3] was 55.6 and the fold induction at 25 µM [1] was 154.

With COc1ccc(NC(=O)Cn2cc(C(=O)c3ccc(F)cc3)c(=O)c3cc4c(cc32)OCCO4)cc1 [Example 108, N-p-Anisyl-2-[6,7-ethylenedioxy-3-(4-fluorobenzoyl)-4-oxo-1-quinolinyl]acetamide] the fold induction at 25 µM [2] was 1.3.

Work on COc1ccc2c(n1)c(=O)c(C(=O)c1ccc(F)cc1)cn2CC(=O)Nc1ccc(C)cc1 [Example 39, 2-[3-(4-Fluorobenzoyl)-6-methoxy-4-oxo-1,5-naphthyridin-1-yl]-N-p-tolylacetamide] yielded a fold induction at 25 µM [4] of 76.2.

Cc1ccc(C(=O)c2cn(CC(=O)Nc3ccc4c(c3)OCO4)c3cc4c(cc3c2=O)OCO4)cc1C [Example 76, 2-[3-(3,4-Dimethylbenzoyl)-6,7-methylenedioxy-4-oxo-1-quinolinyl]-N-(3,4-methylenedioxyphenyl)-acetamide] showed a fold induction at 25 µM [3] of 23.9 and a fold induction at 25 µM [1] of 43.6.

In the case of COc1cc2c(=O)c(C(=O)c3ccc4ccccc4c3)cn(CC(=O)Nc3ccc(Cl)cc3)c2cc1OC [Example 17, N-(4-Chlorophenyl)-2-[6,7-dimethoxy-3-(2-naphthoyl)-4-oxo-1-quinolinyl]acetamide], the fold induction at 25 µM [2] is reported as 16.3.

In the case of COc1ccc(NC(=O)Cn2cc(S(=O)(=O)c3ccc(Cl)cc3)c(=O)c3cc4c(cc32)OCO4)cc1 [Example 45, N-p-Anisyl-2-[3-(4-chlorobenzenesulfonyl)-6,7-methylenedioxy-4-oxo-1-quinolinyl]acetamide], the fold induction at 25 µM [3] is reported as 10.7.

For O=C(Cn1cc(C(=O)c2ccc3ccccc3c2)c(=O)c2cc3c(cc21)OCO3)Nc1ccc(Cl)c(Cl)c1 [Example 7, N-(3,4-Dichlorophenyl)-2-[6,7-methylenedioxy-3-(2-naphthoyl)-4-oxo-1-quinolinyl]acetamide], the fold induction at 25 µM [4] was 2.2.

For Cc1ccc(C(=O)c2cn(CC(=O)Nc3ccc(F)cc3)c3cc4c(cc3c2=O)OCO4)cc1 [Example 62, N-(4-Fluorophenyl)-2-(6,7-methylenedioxy-4-oxo-3-p-toluoyl-1-quinolinyl)acetamide], the fold induction at 25 µM [3] was 26.1 and the fold induction at 25 µM [1] was 51.

For O=C(Cn1cc(C(=O)c2ccc3ccccc3c2)c(=O)c2cc3c(cc21)OCO3)Nc1cccc(OC(F)(F)F)c1 [Example 8, 2-[6,7-Methylenedioxy-3-(2-naphthoyI)-4-oxo-1-quinolinyl]-N-(3-trifluoromethoxyphenyl)acetamide], the fold induction at 25 µM [4] was 1.3.

For O=C(Cn1cc(C(=O)c2ccc3ccccc3c2)c(=O)c2cc3c(cc21)OCO3)Nc1ccc(Cl)cc1Cl [Example 6, N-(2,4-DichlorophenyI)-2-[6,7-methylenedioxy-3-(2-naphthoyl)-4-oxo-1-quinolinyl]acetamide], the fold induction at 25 µM [4] was 1.7.

In the case of COc1ccc(NC(=O)Cn2cc(C(=O)c3ccc(C)c(C)c3)c(=O)c3cc4c(cc32)OCO4)c(OC)c1 [Example 30, N-(2,4-Dimethoxyphenyl)-2-[3-(3,4-dimethylbenzoyl)-6,7-methylenedioxy-4-oxo-1-quinolinyl]acetamide], the fold induction at 25 µM [3] is reported as 28.2 and the fold induction at 25 µM [4] is reported as 4.1.

In the case of COc1ccc(NC(=O)Cn2cc(C(=O)c3ccc(Cl)cc3)c(=O)c3cc(OC)c(OC)cc32)cc1 [Example 104, N-p-Anisyl-2-[3-(4-chlorobenzoyl)-6,7-dimethoxy-4-oxo-1-quinolinyl]acetamide], the fold induction at 25 µM [2] is reported as 1.4.

Compound COc1ccc2c(n1)c(=O)c(C(=O)c1ccc(F)cc1)cn2CC(=O)Nc1ccc(C(F)(F)F)cc1 [Example 40, 2-[3-(4-Fluorobenzoyl)-6-methoxy-4-oxo-1,5-naphthyridin-1-yl]-N-(4-trifluoromethylphenyl)acetamide] has a fold induction at 25 µM [4] of 73.

In the case of O=C(Cn1cc(C(=O)c2ccc3ccccc3c2)c(=O)c2cc3c(cc21)OCO3)Nc1ccccc1Cl [Example 10, N-(2-ChlorophenyI)-2-[6,7-methylenedioxy-3-(2-naphthoyl)-4-oxo-1-quinolinyl]acetamide], the fold induction at 25 µM [4] is reported as 1.7.

Work on O=C(Cn1cc(S(=O)(=O)c2ccccc2)c(=O)c2cc3c(cc21)OCO3)Nc1ccc(F)cc1 [Example 80, 2-(3-Benzenesulfonyl-6,7-methylenedioxy-4-oxo-1-quinolinyl)-N-(4-fluorophenyl)acetamide] yielded a fold induction at 25 µM [3] of 3.2.

COc1cc2c(cn1)c(=O)c(C(=O)c1ccc3ccccc3c1)cn2CC(=O)Nc1ccc(Cl)cc1 [Example 23, N-(4-Chlorophenyl)-2-[7-methoxy-3-(2-naphthoyl)-4-oxo-(1,6-naphthyridin-1-yl)]-acetamide] showed a fold induction at 25 µM [4] of 2.1.

COc1cccc(NC(=O)Cn2cc(C(=O)c3ccc(C)c(C)c3)c(=O)c3cc4c(cc32)OCO4)c1 [Example 75, N-m-Anisyl-2-[3-(3,4-dimethylbenzoyl)-6,7-methylenedioxy-4-oxo-1-quinolinyl]acetamide] showed a fold induction at 25 µM [3] of 5.3 and a fold induction at 25 µM [1] of 7.7.

Work on COc1cccc2c1c(=O)c(C(=O)c1ccc(F)cc1)cn2CC(=O)Nc1ccc(Cl)cc1 [Example 25] yielded a fold induction at 25 µM [4] of 34.6.

With Cc1ccc(C(=O)c2cn(CC(=O)Nc3ccc(N(C)C)cc3)c3cc4c(cc3c2=O)OCO4)cc1C [Example 35] the fold induction at 25 µM [3] was 6.3.

COc1ccc(C(=O)c2cn(CC(=O)Nc3ccc4c(c3)OCO4)c3cc4c(cc3c2=O)OCO4)cc1 [Example 59, 2-(3-p-Anisoyl-6,7-methylenedioxy-4-oxo-1-quinolinyl)-N-(3,4-methylenedioxyphenyl)acetamide] showed a fold induction at 25 µM [3] of 13.4 and a fold induction at 25 µM [1] of 7.6.

Work on O=C(Cn1cc(C(=O)c2cccnc2)c(=O)c2cc3c(cc21)OCO3)Nc1ccc(Cl)cn1 [Example 34, N-(5-Chloro-2-pyridyl)-2-(6,7-methylenedioxy-3-nicotinoyl-4-oxo-1-quinolinyl)acetamide] yielded a fold induction at 25 µM [3] of 27.5.

With Cc1ccc(C(=O)c2cn(CC(=O)Nc3ccc(F)cc3)c3cc4c(cc3c2=O)OCO4)cc1C [Example 72, 2-[3-(3,4-Dimethylbenzoyl)-6,7-methylenedioxy-4-oxo-1-quinolinyl]-N-(4-fluorophenyl)acetamide] the fold induction at 25 µM [3] was 33.6 and the fold induction at 25 µM [1] was 62.6.
